The source of these data is US10034913B2, “Anti-angiogenic peptides and uses thereof” (Health Research, Inc., priority 2011, dated 2018).

The test system of one experiment is HUVEC cells. As to the kind of experiment: Expression of angiogenesis/vasculogenesis genes in HUVEC, enzymatically active vs inactive PSA. Type of experiment: cell-based, human. The method, then:
Enzymatically active PSA, and PSA inactivated by incubation with Zinc^2+ [activity inhibited>75% by 5.0 μM of Zinc, inset FIG. 4] were compared for their respective effects on expression of genes involved in angiogenesis/vasculogenesis in HUVEC cells.

Experiment [1] has as its system PC-3M cells. As to conditions: cited from earlier work.
A further experiment relates to PC-3M xenografts. As to the kind of experiment: Growth of PC-3M xenografts in nude mice. The class given is in vivo. To be noted: PSA administered in the tumor vicinity; control animals 267 mm^3. The text has this: (§1) PSA purified to homogeneity from human seminal plasma is enzymatically active, and free of contaminating hk2, and complexes with carrier proteins/chaperones (Bindukumar, B., et al., J Chromatogr B Analyt Technol Biomed Life Sci, 2004. 813(1-2): p. 113-20).

Experiment [2] relates to PC-3M cells. As to the kind of experiment: Gene expression array and QPCR analysis of PC-3M cells treated with PSA. The class given is cell-based, human.
Text: as §1

The test system of another experiment is HUVEC. Kind of experiment: Matrigel endothelial tube formation assay. Type of experiment: cell-based, human. As to conditions: for anti-angiogenic activity, inhibition of tube formation by HUVEC in Matrigel: 10 uM, 18 hr, FIGS. 14, 19, 20. The source says: The 3-D model of human PSA, the amino acid sequence of the initial five candidate peptides, and their color-coded location on the exterior of the PSA protein molecule in aqueous solution, are presented in FIG. 8. Five PSA-mimetic peptides with >90% purity were acquired from GeneScript Corporation, Piscataway, N.J., and tested for anti-angiogenic activity against HUVECs in the Matrigel tube formation assay with intact PSA as the control (FIGS. 9 &10). Briefly, to perform these assays, 10^4 HUVEC cells are mixed with the PSA mimetic peptide, and, the mixture placed on top of a solidified, pre-poured Matrigel layer in a flat bottomed well of a multi-chambered plate, and the culture incubated for 16-18 hr to allow time for the endothelial cells to migrate and form tubular structures. At the conclusion of the incubation, digital images were made from the center of each culture to avoid bias, and 3-4 wells for each test condition were imaged. The images are processed under the Analyze 7.0 and “Angioquant” software packages, for imaging and quantification. The total length of tubular structures in the image is determined, and averaged over the replicate cultures. This method of quantification allows for accurate, unbiased measurement of tube lengths. Peptides having each of the peptide sequences shown in FIG. 8 are encompassed within the scope of the invention, including all modifications and substitutions to the sequences as described supra.
The experimental endpoint, measured by digital image analysis, is the total area of the image comprised of endothelial cells (tubes). […] While the reason for the decrease in the amount of anti-angiogenic activity in this figure when the concentration of the peptides is increased from 10 to 100 μM is not clear, it may be related to a dosing response observed in this case. […] FIG. 10 presents the evaluation of anti-angiogenic activity for peptides #1 and #3 relative to the level of inhibition by native PSA, averaged over multiple experiments with different parental populations of HUVEC cells. Across multiple sets of experiments, both peptides inhibited the angiogenic activity of HUVEC by 35-40% relative to native PSA.
FIG. 13 is a graphical representation of data showing anti-angiogenic activity of f-PSA, PSA-P3L, and PSA-P3C by inhibiting tube formation by HUVEC in a Matrigel assay. To produce the results summarized in FIG. 13, a 24-well tissue culture plate was coated with 200 ul/well of Matrigel and incubated for 30 min at 37 C. Approximately 80,000 HUVEC in 0.5 ml of media supplemented with f-PSA or PSA-P3L, PSA-P3C was applied on top of the Matrigel layer and cells were incubated for 18 hr at 37 C foe endothelial cell tube formation. Live cell images (4× magnification) were taken using Nikon Eclipse TE300 inverted microscope system and analyzed using Spot Advance software program. Five images were taken/well. The images were processed further using Analyze 7.0 (AnalyzeDirect, Inc., Overland Park, Kans.) and Angioquant v1.33 to obtain the average tube length for each image. Percent inhibition is expressed in relation to tube length in untreated control cells.

[3] abbreviates: PC-3M cells versus LNCaP cells treated with 10 μM PSA.

With “f-PSA: PSA isolated from human seminal plasma, free and enzymatically active; 237 amino acid protein (residues 25-261)”, in the experiment on HUVEC cells, the “expression of blood vessel development genes FAK, FLT, KDR, TWIST1, Cathepsin D and P-38” value is on record as “equally effective”; the “negative modulation of expression of pro-angiogenic growth factors bFGF and VEGF” value was “equally effective”; the “positive modulation of expression of IFN-γ” value was “equally effective”. For the same substance, in the experiment with PC-3M cells [1], the “effect on VEGF and IFN-γ gene expression and protein release” value was “distinctly dose dependent”. This substance yielded a mean tumor volume in the experiment with PC-3M xenografts of 13 mm^3. Also, in the experiment on PC-3M cells [2] (setting [3]), the “genes down-regulated (gene expression array)” value was found to be 137 and the “genes up-regulated (gene expression array)” value is 136. Also, in the experiment on PC-3M cells [2] (PC-3M cells, 10 μM PSA), the “expression of IFN-γ and interferon related genes incl. 2,5 oligo-adenylated synthetase-2 (QPCR)” value is given as “up-regulated”; the “expression of uPA, VEGF, cysteine-rich angiogenic inducer-61, EphA2, TGF-β2 (QPCR)” value is reported as “significantly down-regulated”. Moreover, the “anti-angiogenic activity, inhibition of tube formation by HUVEC in Matrigel” value in the experiment with HUVEC is given as “significant anti-angiogenic activity”. For the same substance, the “anti-angiogenic activity, inhibition of tube formation by HUVEC in Matrigel” value in the experiment with HUVEC (listed as PSA) is given as “significantly inhibit”. Besides, the “inhibitory activity on endothelial tube formation” value in the experiment with HUVEC (equi-molar concentrations of f-PSA and T-PSA) is “equivalent inhibitory activity”.
